# Experimental data: the kinase profiling compilation of Christmann-Franck et al. (2016)
# Key:
# Assay in all cases: radiometric filter-binding kinase assay, Kinase HotSpot
# Conditions in all cases: compound 0.5 µM; ATP 10 µM
# [1] = molecular target: STK11 (human) (UniProt Q15831)
# [2] = molecular target: LTK (human) (UniProt P29376)
# [3] = molecular target: EPHA8 (human) (UniProt P29322)
# [4] = molecular target: HIPK1 (human) (UniProt Q86Z02)
# [5] = molecular target: EPHA2 (human) (UniProt P29317)
# [6] = molecular target: FYN (human) (UniProt P06241)
# [7] = molecular target: PRKCD (human) (UniProt Q05655)
# Chain of PRKCD (human) (Q05655 whole entry, looked up): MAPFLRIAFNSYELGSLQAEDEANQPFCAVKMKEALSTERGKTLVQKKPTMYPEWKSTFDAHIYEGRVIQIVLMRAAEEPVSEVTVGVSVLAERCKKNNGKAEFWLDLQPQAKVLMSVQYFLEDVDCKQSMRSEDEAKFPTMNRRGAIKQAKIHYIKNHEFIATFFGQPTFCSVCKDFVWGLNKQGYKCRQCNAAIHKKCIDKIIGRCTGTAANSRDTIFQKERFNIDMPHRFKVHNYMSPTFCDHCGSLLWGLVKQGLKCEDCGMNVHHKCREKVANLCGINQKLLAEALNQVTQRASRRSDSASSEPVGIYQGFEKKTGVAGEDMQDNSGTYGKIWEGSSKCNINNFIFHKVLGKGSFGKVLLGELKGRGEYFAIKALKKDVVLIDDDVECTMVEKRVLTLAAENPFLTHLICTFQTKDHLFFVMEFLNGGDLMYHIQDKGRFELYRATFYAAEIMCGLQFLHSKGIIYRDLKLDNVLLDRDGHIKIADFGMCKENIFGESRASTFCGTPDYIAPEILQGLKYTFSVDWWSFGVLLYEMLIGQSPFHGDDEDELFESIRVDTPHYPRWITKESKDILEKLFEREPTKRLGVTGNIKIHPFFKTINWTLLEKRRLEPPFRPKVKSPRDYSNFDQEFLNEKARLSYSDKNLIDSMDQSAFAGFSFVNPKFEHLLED
# [8] = molecular target: PRKD1 (human) (UniProt Q15139)
# [9] = molecular target: MAP4K4 (human) (UniProt O95819)
# [10] = molecular target: CSNK1G2 (human) (UniProt P78368)
# [11] = molecular target: SGK3 (human) (UniProt Q96BR1)
# [12] = molecular target: MAP2K1 (human) (UniProt Q02750)
# [13] = molecular target: CDK7 CCNH MNAT1 (human) (UniProt P50613+P51948+P51946)
# [14] = molecular target: CDC42BPA (human) (UniProt Q5VT25)
# [15] = molecular target: ITK (human) (UniProt Q08881)
# Chain of ITK (human) (Q08881 whole entry, looked up): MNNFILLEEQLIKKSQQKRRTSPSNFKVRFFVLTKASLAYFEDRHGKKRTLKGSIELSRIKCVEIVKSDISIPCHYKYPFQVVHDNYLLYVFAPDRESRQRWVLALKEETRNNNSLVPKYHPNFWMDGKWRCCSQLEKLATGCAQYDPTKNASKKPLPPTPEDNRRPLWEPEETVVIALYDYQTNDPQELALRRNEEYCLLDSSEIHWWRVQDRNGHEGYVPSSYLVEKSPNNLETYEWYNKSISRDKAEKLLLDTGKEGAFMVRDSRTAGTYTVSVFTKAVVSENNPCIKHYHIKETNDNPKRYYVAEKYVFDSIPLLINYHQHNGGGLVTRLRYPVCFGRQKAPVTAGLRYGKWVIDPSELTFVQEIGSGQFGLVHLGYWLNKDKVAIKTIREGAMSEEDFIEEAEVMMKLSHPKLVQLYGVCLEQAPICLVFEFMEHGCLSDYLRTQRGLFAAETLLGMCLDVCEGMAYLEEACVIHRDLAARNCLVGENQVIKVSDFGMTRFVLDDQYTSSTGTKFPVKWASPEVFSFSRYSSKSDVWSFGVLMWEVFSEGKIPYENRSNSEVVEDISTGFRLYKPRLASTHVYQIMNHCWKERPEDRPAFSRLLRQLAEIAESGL
# [16] = molecular target: TAOK2 (human) (UniProt Q9UL54)
# [17] = molecular target: PRKACA (human) (UniProt P17612)
# [18] = molecular target: MYLK (human) (UniProt Q15746)
# [19] = molecular target: MST4 (human) (UniProt Q9P289)
# [20] = molecular target: PTK6 (human) (UniProt Q13882)
# Chain of PTK6 (human) (Q13882 whole entry, looked up): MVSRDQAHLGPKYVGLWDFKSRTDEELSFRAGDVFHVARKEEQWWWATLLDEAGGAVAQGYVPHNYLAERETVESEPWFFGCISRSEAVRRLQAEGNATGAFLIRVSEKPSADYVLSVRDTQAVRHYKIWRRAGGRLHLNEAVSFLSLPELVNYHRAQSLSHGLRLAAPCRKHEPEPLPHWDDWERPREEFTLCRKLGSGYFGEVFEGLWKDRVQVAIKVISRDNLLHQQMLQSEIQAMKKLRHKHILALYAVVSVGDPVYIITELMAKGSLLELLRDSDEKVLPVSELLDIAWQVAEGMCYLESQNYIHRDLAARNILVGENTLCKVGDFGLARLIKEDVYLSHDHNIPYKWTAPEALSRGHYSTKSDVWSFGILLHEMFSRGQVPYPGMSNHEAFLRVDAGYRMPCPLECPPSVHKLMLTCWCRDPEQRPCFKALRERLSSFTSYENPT
# [21] = molecular target: FGFR1 (human) (UniProt P11362)
# Chain of FGFR1 (human) (P11362 whole entry, looked up): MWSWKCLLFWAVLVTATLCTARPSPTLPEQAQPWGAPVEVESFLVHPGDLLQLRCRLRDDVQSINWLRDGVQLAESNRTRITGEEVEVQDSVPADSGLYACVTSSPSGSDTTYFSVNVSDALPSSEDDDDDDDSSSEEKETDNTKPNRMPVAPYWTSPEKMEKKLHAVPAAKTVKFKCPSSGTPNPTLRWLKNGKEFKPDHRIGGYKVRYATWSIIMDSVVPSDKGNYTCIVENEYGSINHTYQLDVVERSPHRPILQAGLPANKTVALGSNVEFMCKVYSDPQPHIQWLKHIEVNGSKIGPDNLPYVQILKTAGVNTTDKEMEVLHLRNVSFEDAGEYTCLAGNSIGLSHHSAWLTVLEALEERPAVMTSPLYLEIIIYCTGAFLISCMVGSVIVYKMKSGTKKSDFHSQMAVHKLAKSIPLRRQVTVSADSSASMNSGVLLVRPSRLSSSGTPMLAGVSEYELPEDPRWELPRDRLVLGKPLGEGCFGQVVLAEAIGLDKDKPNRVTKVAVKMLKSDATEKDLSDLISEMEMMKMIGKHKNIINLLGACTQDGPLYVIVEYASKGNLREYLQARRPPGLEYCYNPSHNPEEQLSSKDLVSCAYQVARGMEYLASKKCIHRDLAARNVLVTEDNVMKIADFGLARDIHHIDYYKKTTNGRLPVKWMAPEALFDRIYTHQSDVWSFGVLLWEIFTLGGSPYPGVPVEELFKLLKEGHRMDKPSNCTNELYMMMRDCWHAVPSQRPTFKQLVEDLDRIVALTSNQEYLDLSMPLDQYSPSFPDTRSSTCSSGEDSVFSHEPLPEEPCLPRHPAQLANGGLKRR
# [22] = molecular target: CHEK1 (human) (UniProt O14757)
# [23] = molecular target: YES1 (human) (UniProt P07947)
# Chain of YES1 (human) (P07947 whole entry, looked up): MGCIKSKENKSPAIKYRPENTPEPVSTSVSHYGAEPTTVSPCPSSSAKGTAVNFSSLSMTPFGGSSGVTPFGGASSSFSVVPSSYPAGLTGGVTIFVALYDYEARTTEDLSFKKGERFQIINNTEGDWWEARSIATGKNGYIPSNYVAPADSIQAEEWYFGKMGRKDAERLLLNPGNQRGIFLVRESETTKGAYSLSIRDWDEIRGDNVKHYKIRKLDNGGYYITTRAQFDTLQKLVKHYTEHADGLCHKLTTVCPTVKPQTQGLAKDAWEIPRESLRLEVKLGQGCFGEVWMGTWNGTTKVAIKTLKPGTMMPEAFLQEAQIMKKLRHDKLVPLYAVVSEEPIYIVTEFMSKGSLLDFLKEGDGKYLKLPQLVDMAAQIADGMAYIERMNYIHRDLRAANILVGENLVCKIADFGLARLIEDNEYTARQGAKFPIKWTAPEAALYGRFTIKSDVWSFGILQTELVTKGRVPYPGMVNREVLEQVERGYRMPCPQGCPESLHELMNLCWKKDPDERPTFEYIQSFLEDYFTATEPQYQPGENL
# [24] = molecular target: STK16 (human) (UniProt O75716)
# [25] = molecular target: ADRBK1 (human) (UniProt P25098)
# [26] = molecular target: EPHA4 (human) (UniProt P54764)
# [27] = molecular target: TAOK3 (human) (UniProt Q9H2K8)
# [28] = molecular target: PKN2 (human) (UniProt Q16513)
# Chain of PKN2 (human) (Q16513 whole entry, looked up): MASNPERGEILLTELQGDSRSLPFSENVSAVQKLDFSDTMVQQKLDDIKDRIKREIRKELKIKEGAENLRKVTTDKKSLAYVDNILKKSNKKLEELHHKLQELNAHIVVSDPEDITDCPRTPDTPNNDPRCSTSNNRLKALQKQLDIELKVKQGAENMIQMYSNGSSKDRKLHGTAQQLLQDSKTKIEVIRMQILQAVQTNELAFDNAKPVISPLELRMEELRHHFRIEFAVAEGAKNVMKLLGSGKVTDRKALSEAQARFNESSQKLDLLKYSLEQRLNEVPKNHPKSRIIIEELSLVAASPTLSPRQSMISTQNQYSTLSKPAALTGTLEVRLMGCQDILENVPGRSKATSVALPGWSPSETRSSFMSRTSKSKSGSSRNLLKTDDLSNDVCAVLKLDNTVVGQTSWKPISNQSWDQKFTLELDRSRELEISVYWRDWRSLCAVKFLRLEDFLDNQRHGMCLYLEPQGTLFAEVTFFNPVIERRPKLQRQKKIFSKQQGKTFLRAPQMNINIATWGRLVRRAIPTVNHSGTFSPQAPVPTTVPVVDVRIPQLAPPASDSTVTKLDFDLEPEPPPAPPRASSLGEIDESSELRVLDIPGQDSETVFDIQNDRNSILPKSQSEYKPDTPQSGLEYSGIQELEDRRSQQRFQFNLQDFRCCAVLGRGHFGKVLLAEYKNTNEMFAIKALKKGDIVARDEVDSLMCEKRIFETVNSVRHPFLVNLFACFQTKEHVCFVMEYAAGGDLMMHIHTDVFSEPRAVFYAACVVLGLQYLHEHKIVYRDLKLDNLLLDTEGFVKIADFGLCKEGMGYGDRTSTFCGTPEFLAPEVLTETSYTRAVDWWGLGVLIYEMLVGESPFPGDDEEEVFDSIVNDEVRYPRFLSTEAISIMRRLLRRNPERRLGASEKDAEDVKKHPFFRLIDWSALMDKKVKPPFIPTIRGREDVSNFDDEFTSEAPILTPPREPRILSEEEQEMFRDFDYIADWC
# [29] = molecular target: HIPK2 (human) (UniProt Q9H2X6)
# [30] = molecular target: STK17A (human) (UniProt Q9UEE5)
# Chain of STK17A (human) (Q9UEE5 whole entry, looked up): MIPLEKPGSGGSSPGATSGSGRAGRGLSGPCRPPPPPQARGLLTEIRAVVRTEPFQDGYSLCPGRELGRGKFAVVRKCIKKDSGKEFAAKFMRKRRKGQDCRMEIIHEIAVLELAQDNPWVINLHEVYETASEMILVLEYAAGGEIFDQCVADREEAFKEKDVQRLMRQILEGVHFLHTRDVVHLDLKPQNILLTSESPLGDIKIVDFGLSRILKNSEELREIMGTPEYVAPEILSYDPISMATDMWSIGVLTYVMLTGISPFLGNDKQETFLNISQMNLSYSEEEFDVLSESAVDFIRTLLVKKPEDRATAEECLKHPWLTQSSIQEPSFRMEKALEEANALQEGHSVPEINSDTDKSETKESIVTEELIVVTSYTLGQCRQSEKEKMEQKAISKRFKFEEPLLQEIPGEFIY
# [31] = molecular target: CDK2 CCNE1 (human) (UniProt P24941+P24864)
# [32] = molecular target: AKT1 (human) (UniProt P31749)
# [33] = molecular target: CDK3 CCNE1 (human) (UniProt Q00526+P24864)
# [34] = molecular target: PRKD2 (human) (UniProt Q9BZL6)
# [35] = molecular target: PAK7 (human) (UniProt Q9P286)
# [36] = molecular target: GSK3A (human) (UniProt P49840)
# [37] = molecular target: PRKD3 (human) (UniProt O94806)
# [38] = molecular target: STK10 (human) (UniProt O94804)
# [39] = molecular target: NUAK2 (human) (UniProt Q9H093)
# [40] = molecular target: RIPK2 (human) (UniProt O43353)
# [41] = molecular target: STK25 (human) (UniProt O00506)
# Chain of STK25 (human) (O00506 whole entry, looked up): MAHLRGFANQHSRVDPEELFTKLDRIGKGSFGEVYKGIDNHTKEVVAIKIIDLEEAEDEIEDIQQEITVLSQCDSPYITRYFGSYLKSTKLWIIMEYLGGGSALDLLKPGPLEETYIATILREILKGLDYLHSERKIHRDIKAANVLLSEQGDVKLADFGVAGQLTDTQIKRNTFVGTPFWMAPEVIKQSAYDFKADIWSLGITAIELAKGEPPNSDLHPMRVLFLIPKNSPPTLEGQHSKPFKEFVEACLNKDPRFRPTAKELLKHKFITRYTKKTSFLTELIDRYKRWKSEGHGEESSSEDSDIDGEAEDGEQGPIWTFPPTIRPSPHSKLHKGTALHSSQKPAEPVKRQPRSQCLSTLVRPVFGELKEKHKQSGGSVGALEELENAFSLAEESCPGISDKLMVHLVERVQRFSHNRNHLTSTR
# [42] = molecular target: RPS6KB1 (human) (UniProt P23443)
structure (smiles),measurement,setting,value
CC(C)c1nn(-c2c(Cl)cccc2Cl)c2nc(Cc3ccc(OCCO)cc3)nc(O)c12,residual activity,[1],47.7%
same,residual activity,[2],87.4%
same,residual activity,[3],102%
same,residual activity,[4],102%
same,residual activity,[5],100%
same,residual activity,[6],102%
same,residual activity,[7],108%
same,residual activity,[8],103%
same,residual activity,[9],84.5%
same,residual activity,[10],95.7%
same,residual activity,[11],92.6%
same,residual activity,[12],99.7%
same,residual activity,[13],60.3%
same,residual activity,[14],89.5%
same,residual activity,[15],98.6%
same,residual activity,[16],93.3%
same,residual activity,[17],99.8%
same,residual activity,[18],98.3%
same,residual activity,[19],46.8%
same,residual activity,[20],87.1%
same,residual activity,[21],84.2%
same,residual activity,[22],96.2%
same,residual activity,[23],86.3%
same,residual activity,[24],83.8%
same,residual activity,[25],94.8%
same,residual activity,[26],102%
same,residual activity,[27],91.3%
same,residual activity,[28],97.5%
same,residual activity,[29],104%
same,residual activity,[30],98.3%
same,residual activity,[31],8.6%
same,residual activity,[32],94.7%
same,residual activity,[33],6.14%
same,residual activity,[34],88.4%
same,residual activity,[35],76.4%
same,residual activity,[36],73.1%
same,residual activity,[37],92.3%
same,residual activity,[38],96.6%
same,residual activity,[39],91.7%
same,residual activity,[40],89.3%
same,residual activity,[41],68.1%
same,residual activity,[42],94.8%
O=C1NC(=O)C(c2cn(CCCO)c3ncccc23)=C1c1cnccn1,residual activity,[1],83.1%
same,residual activity,[2],90.9%
same,residual activity,[3],86.9%
same,residual activity,[4],84.2%
same,residual activity,[5],105%
same,residual activity,[6],107%
same,residual activity,[7],97%
same,residual activity,[8],107%
same,residual activity,[9],36.4%
same,residual activity,[10],66%
same,residual activity,[11],124%
same,residual activity,[12],106%
same,residual activity,[13],96.9%
same,residual activity,[14],78.6%
same,residual activity,[15],84.7%
same,residual activity,[16],88.1%
same,residual activity,[17],87.7%
same,residual activity,[18],74%
same,residual activity,[19],78.7%
same,residual activity,[20],101%
same,residual activity,[21],81.2%
same,residual activity,[22],141%
same,residual activity,[23],80.1%
same,residual activity,[24],90.3%
same,residual activity,[25],114%
same,residual activity,[26],99.5%
same,residual activity,[27],88.2%
same,residual activity,[28],83.3%
same,residual activity,[29],96.6%
same,residual activity,[30],93.6%
same,residual activity,[31],85.1%
same,residual activity,[32],98.6%
same,residual activity,[33],89.4%
same,residual activity,[34],118%
same,residual activity,[35],88.2%
same,residual activity,[36],8.56%
same,residual activity,[37],78.2%
same,residual activity,[38],104%
same,residual activity,[39],92.3%
same,residual activity,[40],90.9%
same,residual activity,[41],78.9%
same,residual activity,[42],90.2%
Cc1nc2cc3nc(-c4cccs4)cnc3cc2n1C,residual activity,[1],89.6%
same,residual activity,[2],95.2%
same,residual activity,[3],100%
same,residual activity,[4],103%
same,residual activity,[5],107%
same,residual activity,[6],107%
same,residual activity,[7],78.6%
same,residual activity,[8],97.7%
same,residual activity,[9],84.5%
same,residual activity,[10],103%
same,residual activity,[11],105%
same,residual activity,[12],89.7%
same,residual activity,[13],102%
same,residual activity,[14],109%
same,residual activity,[15],96.7%
same,residual activity,[16],99.7%
same,residual activity,[17],100%
same,residual activity,[18],97%
same,residual activity,[19],99.3%
same,residual activity,[20],88.6%
same,residual activity,[21],88.8%
same,residual activity,[22],99.8%
same,residual activity,[23],66.9%
same,residual activity,[24],95.2%
same,residual activity,[25],83.7%
same,residual activity,[26],93.1%
same,residual activity,[27],116%
same,residual activity,[28],71%
same,residual activity,[29],107%
same,residual activity,[30],80.5%
same,residual activity,[31],91.4%
same,residual activity,[32],114%
same,residual activity,[33],93.6%
same,residual activity,[34],106%
same,residual activity,[35],114%
same,residual activity,[36],94.1%
same,residual activity,[37],97.1%
same,residual activity,[38],94.7%
same,residual activity,[39],96.7%
same,residual activity,[40],89.1%
same,residual activity,[41],97.3%
same,residual activity,[42],95%
O=C(CCCc1ccc(-c2ccccc2F)cc1)Nc1ccc(O)cc1,residual activity,[1],97.4%
same,residual activity,[2],106%
same,residual activity,[3],114%
same,residual activity,[4],105%
same,residual activity,[5],101%
same,residual activity,[6],94.7%
same,residual activity,[7],110%
same,residual activity,[8],98.4%
same,residual activity,[9],92.9%
same,residual activity,[10],99.4%
same,residual activity,[11],106%
same,residual activity,[12],104%
same,residual activity,[13],101%
same,residual activity,[14],103%
same,residual activity,[15],85%
same,residual activity,[16],98.4%
same,residual activity,[17],99.5%
same,residual activity,[18],98.6%
same,residual activity,[19],91.5%
same,residual activity,[20],102%
same,residual activity,[21],98%
same,residual activity,[22],98.8%
same,residual activity,[23],110%
same,residual activity,[24],111%
same,residual activity,[25],105%
same,residual activity,[26],99.2%
same,residual activity,[27],91.4%
same,residual activity,[28],89.8%
same,residual activity,[29],112%
same,residual activity,[30],101%
same,residual activity,[31],91.9%
same,residual activity,[32],97.7%
same,residual activity,[33],92.6%
same,residual activity,[34],97.6%
same,residual activity,[35],90.3%
same,residual activity,[36],98.6%
same,residual activity,[37],96.9%
same,residual activity,[38],95.3%
same,residual activity,[39],92.9%
same,residual activity,[40],84.5%
same,residual activity,[41],105%
same,residual activity,[42],102%
